pEC50: −log10 of the molar value.

One assay addresses T1, Thrombopoietin receptor (Homo sapiens) (UniProt P40238).
T1 sequence (whole entry): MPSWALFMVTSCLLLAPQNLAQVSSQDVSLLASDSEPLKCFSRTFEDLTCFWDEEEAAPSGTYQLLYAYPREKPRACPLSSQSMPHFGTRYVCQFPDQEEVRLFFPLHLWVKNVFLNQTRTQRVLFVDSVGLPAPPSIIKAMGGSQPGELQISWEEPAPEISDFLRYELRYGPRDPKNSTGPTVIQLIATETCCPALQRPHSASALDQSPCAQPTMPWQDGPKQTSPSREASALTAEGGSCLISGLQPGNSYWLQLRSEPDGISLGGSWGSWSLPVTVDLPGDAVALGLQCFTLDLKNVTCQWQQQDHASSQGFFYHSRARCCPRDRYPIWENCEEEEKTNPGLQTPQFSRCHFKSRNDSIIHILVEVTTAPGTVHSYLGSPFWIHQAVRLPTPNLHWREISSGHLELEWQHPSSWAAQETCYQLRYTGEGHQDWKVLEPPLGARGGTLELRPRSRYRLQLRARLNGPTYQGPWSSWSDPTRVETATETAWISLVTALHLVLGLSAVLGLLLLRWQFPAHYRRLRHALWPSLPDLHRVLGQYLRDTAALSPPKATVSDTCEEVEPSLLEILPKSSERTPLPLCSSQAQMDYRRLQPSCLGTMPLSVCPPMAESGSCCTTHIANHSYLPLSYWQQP
As to the kind of experiment: Agonist activity at TPO receptor at 10 uM. Format: functional.
`O=C(Nc1nc(-c2ccccc2F)cs1)c1ccc(Nc2ccncn2)cc1` displayed an Activity of 58%.
Turning to `O=C(Nc1nc(-c2c(F)cccc2F)cs1)c1ccc(Nc2ccncn2)cc1`, the Activity turned out to be 0%.
Regarding `Nc1nc(-c2c(F)cccc2F)cs1`, the Activity turned out to be 0%.
Still for that read-out and setting: the figure for `O=C(Nc1nc(-c2cccc(F)c2)cs1)c1ccc(Nc2ccncn2)cc1` is 45%.
With `O=C(Nc1nc(-c2ccccc2C(F)(F)F)cs1)c1ccc(Nc2ccncn2)cc1`, the Activity amounted to 38%.

For the next assay, the target named is T2, Thrombopoietin receptor (Homo sapiens, UniProt P40238).
T2 sequence (P40238 whole entry): T1 sequence (whole entry)
As to the kind of experiment: Agonist activity at TPO receptor. The format is functional.
In the case of `Nc1nc(-c2cccc(C(F)(F)F)c2F)cs1`, the pEC50 (as a rule, the negative decadic logarithm of the EC50, by convention in mol/L) is 7.24.
`Cc1sc(N)nc1-c1ccc(F)c(C(F)(F)F)c1`: the pEC50 was 6.74.
Regarding `Nc1nc(-c2ccc(C(F)(F)F)cc2F)cs1`, the pEC50 is 6.59. This pEC50 and that of the compound before are within 0.2 log units of each other.
For `O=C(Nc1nc2c(s1)COc1c(Cl)cccc1-2)c1ccc(Nc2ccncn2)cc1`, the negative logarithm of the EC50 (pEC50) was 6.28.
In turn, `O=C(Nc1nc2c(s1)COc1c(F)cccc1-2)c1ccc(Nc2ccncn2)cc1` gave a pEC50 of 5.82. Against the preceding compound, the pEC50 is 0.46 log units lower.
Compound `Nc1nc(-c2cccc(C(F)(F)F)c2F)c(F)s1` showed a negative logarithm of the EC50 (pEC50) of 6.15. This pEC50 is 0.33 log units higher than that of the compound before.
Regarding `O=C(Nc1nc2c(s1)COc1ccccc1-2)c1ccc(Nc2ccncn2)cc1`, the negative-log EC50 (pEC50) was 6.28.
With `Nc1nc(-c2ccccc2F)cs1`, the pEC50 is 5.17.
The compound `Nc1nc(-c2ccc(F)c(C(F)(F)F)c2)c(F)s1` showed a pEC50 of 7.05.
On to `Nc1nc(-c2ccc(F)c(C(F)(F)F)c2)cs1`, for which the pEC50 was 7.00.
As to `Nc1nc(-c2cc(C(F)(F)F)ccc2F)cs1`, the pEC50 was 5.28. Compared with the last compound, the pEC50 is 1.72 log units lower.
The same measure, in the same setting: the figure for `Nc1nc(-c2c(F)cccc2F)cs1` is below 5.00.
Turning to `Cc1sc(N)nc1-c1cccc(C(F)(F)F)c1F`, the negative-log EC50 (pEC50) was 6.27.
On the same count and under the same terms, the figure for `Nc1nc(-c2cccc(OC(F)(F)F)c2F)cs1` is 7.49.
